Some test systems named below: MOLT-4 leukemia; SW-620 colon; LXFL 529 NSCLC; KM20L2 colon; SNB-19 CNS; XF 498 CNS; DMS 273 small cell lung; HOP-18 NSCLC; UO-31 renal; HCT-15 colon; M19-MEL melanoma; HT29 colon; DMS 114 small cell lung.
Experiment in all cases: NCI anticancer screen, dose series, 48 h

Molecules are shown by their SMILES.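 A five-concentration, 48-hour dose response in 96-well plates underlies each endpoint, interpolated linearly between surrounding concentrations. TGI: concentration producing complete growth inhibition.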 Some results are limits rather than exact numbers.

As to `Cc1ccc(-n2c3nc(=O)n(C)c(=O)c-3nc3ccccc32)c(C)c1`, the TGI stood at 36.2 µM with MOLT-4 leukemia; 19.1 µM in the experiment on SW-620 colon; 24.8 µM in the experiment with LXFL 529 NSCLC; 17.6 µM with KM20L2 colon; 16.1 µM in the experiment with SNB-19 CNS; 26 µM in the experiment on XF 498 CNS. Also, the TGI with DMS 273 small cell lung came out at 18.5 µM; with HOP-18 NSCLC, 20.1 µM; in the experiment on UO-31 renal it was 52.5 µM; in the experiment with HCT-15 colon, 22.5 µM; with M19-MEL melanoma it was 3.33 µM; with HT29 colon, 11.7 µM.
As to `CS(=O)(=O)OCCN1CCN(C(=O)c2ccc(Cl)c3c(Nc4ccc(S(=O)(=O)N=C(N)N)cc4)c4ccccc4nc23)CC1`, the TGI with MOLT-4 leukemia, in the experiment with DMS 114 small cell lung, in the experiment on KM20L2 colon, in the experiment on SNB-19 CNS, in the experiment with XF 498 CNS and in the experiment with DMS 273 small cell lung was greater than 100 µM in each case. Also, the TGI in the experiment on UO-31 renal, in the experiment on HCT-15 colon, in the experiment with M19-MEL melanoma and in the experiment on HT29 colon was greater than 100 µM each time.
With `CCOC1c2nc3ccccc3nc2-c2ccccc2N1C(C)=O` (stereo unspecified), the TGI in the experiment on MOLT-4 leukemia, in the experiment with DMS 114 small cell lung, in the experiment on SW-620 colon, with LXFL 529 NSCLC, in the experiment on KM20L2 colon and with SNB-19 CNS was greater than 100 µM in each case. Besides, the TGI in the experiment with XF 498 CNS, in the experiment on DMS 273 small cell lung, with HOP-18 NSCLC, with UO-31 renal, with HCT-15 colon and with M19-MEL melanoma was greater than 100 µM throughout. In addition, in the experiment on HT29 colon, the TGI is greater than 100 µM.
Turning to `CCCC(O)[C@@]1(CC)CC(C)C(O)(C2(C)C[C@H](C)[C@@H](C(CC)C(=O)C(C)[C@@H](O)[C@H](C)C3OC(O)(C(CC)C(=O)O)[C@@H](C)C(O)C3CC)O2)O1` (stereo partly specified), the TGI came out at 1.08 µM in the experiment with DMS 114 small cell lung; 2.9 µM in the experiment with SW-620 colon; 3.91 µM with LXFL 529 NSCLC; 4.13 µM in the experiment with KM20L2 colon; 3.15 µM with SNB-19 CNS; 2.43 µM in the experiment with XF 498 CNS. Also, the TGI with DMS 273 small cell lung came out at 5.93 µM; in the experiment on HOP-18 NSCLC it was 23.9 µM; in the experiment on UO-31 renal it was 3.18 µM; with HCT-15 colon, 7.03 µM; in the experiment on M19-MEL melanoma, 2.17 µM; in the experiment with HT29 colon, 2.09 µM.
Consider `CC(C)(C)OC(=O)N[C@H]1CC(=O)c2ccccc2N(CC(=O)O)C1=O`, for which the TGI with MOLT-4 leukemia, in the experiment with DMS 114 small cell lung, in the experiment on SW-620 colon, with LXFL 529 NSCLC, with KM20L2 colon and in the experiment with SNB-19 CNS was greater than 100 µM in each case. Moreover, the TGI in the experiment on DMS 273 small cell lung, in the experiment on HOP-18 NSCLC, with UO-31 renal, in the experiment on HCT-15 colon, in the experiment with M19-MEL melanoma and with HT29 colon was greater than 100 µM throughout.
On to `COC(=O)C1CCC(C)CC1=O` (stereo unspecified), for which the TGI in the experiment on MOLT-4 leukemia, with DMS 114 small cell lung, with SW-620 colon, with LXFL 529 NSCLC, in the experiment on SNB-19 CNS and in the experiment on XF 498 CNS was greater than 100 µM in each case. Moreover, the TGI in the experiment on DMS 273 small cell lung, in the experiment with UO-31 renal, with HCT-15 colon, in the experiment on M19-MEL melanoma and with HT29 colon was greater than 100 µM in each case.
For `O=C1OC(=O)c2c1nc1ccccc1c2-c1ccccc1`, the TGI with MOLT-4 leukemia, in the experiment on DMS 114 small cell lung, in the experiment on SW-620 colon, in the experiment with LXFL 529 NSCLC, with KM20L2 colon and in the experiment on SNB-19 CNS was greater than 100 µM throughout. The TGI in the experiment on DMS 273 small cell lung, in the experiment with HOP-18 NSCLC, in the experiment with UO-31 renal, in the experiment on HCT-15 colon, in the experiment on M19-MEL melanoma and in the experiment with HT29 colon was greater than 100 µM in each case.
With `CCc1c(OC(C)=O)c2c(NC3OC(COC(C)=O)C(OC(C)=O)C(OC(C)=O)C3OC(C)=O)nc(SC)nc2oc1=O` (stereo unspecified), the TGI with MOLT-4 leukemia, with DMS 114 small cell lung, with SW-620 colon, in the experiment on LXFL 529 NSCLC, in the experiment on KM20L2 colon and in the experiment on SNB-19 CNS was greater than 100 µM throughout. Moreover, the TGI with XF 498 CNS, with HOP-18 NSCLC, in the experiment on UO-31 renal, in the experiment with HCT-15 colon, in the experiment with M19-MEL melanoma and in the experiment on HT29 colon was greater than 100 µM throughout.
As for `CCC(Oc1ccc(OC)c2c1C(=O)CCC2)C(=O)O` (stereo unspecified), the TGI in the experiment on MOLT-4 leukemia, with DMS 114 small cell lung, in the experiment with SW-620 colon, with LXFL 529 NSCLC, in the experiment on SNB-19 CNS and in the experiment with XF 498 CNS was greater than 100 µM in each case. The TGI in the experiment on DMS 273 small cell lung, in the experiment with UO-31 renal, in the experiment on HCT-15 colon, in the experiment on M19-MEL melanoma and with HT29 colon was greater than 100 µM each time.
Take `CNC(=O)OCc1nc(SSc2nc(COC(=O)NC)c(COC(=O)NC)n2C)n(C)c1COC(=O)NC`: the TGI in the experiment on MOLT-4 leukemia, in the experiment on DMS 114 small cell lung, in the experiment on SW-620 colon, in the experiment with LXFL 529 NSCLC, in the experiment on KM20L2 colon and in the experiment on SNB-19 CNS was greater than 100 µM throughout. Further, the TGI in the experiment on XF 498 CNS, with DMS 273 small cell lung, in the experiment on HOP-18 NSCLC, with UO-31 renal, in the experiment with HCT-15 colon and in the experiment on M19-MEL melanoma was greater than 100 µM in each case. Also, in the experiment with HT29 colon, the TGI is greater than 100 µM.
Consider `CCOC(=O)C1C(c2ccc(Br)cc2)N(Cc2ccccc2)C(c2ccc(Br)cc2)C(C(=O)OC)S1(=O)=O` (stereo unspecified), for which the TGI in the experiment with MOLT-4 leukemia, in the experiment with DMS 114 small cell lung, in the experiment with SW-620 colon, in the experiment with LXFL 529 NSCLC, with KM20L2 colon and with SNB-19 CNS was greater than 100 µM each time. Besides, the TGI in the experiment on XF 498 CNS was greater than 100 µM; in the experiment with DMS 273 small cell lung, greater than 100 µM; in the experiment on HOP-18 NSCLC, 72.9 µM; in the experiment with UO-31 renal, greater than 100 µM; in the experiment on HCT-15 colon it was greater than 100 µM; in the experiment with M19-MEL melanoma it was greater than 100 µM. The molecule also yielded a TGI in the experiment with HT29 colon greater than 100 µM.

Source of the values: PubChem BioAssay (NCI).
